Measurements published in the supplement of paper PMC11061612.

Experiments:
Test in all cases: combination Emax (second highest fraction inhibited in the dose matrix, 72 h); higher = more inhibition; extreme values may be limits of the assay
[1] = system: HTC-C3 (Thyroid Gland Carcinoma)
Method in brief: (§1)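 Cell lines in DMEM/F12 or RPMI with 10% FBS were plated in 1536-well plates, held 24 hours at 37°C, 5% CO2, then given two-drug dose matrices for 72 hours (DMSO typically 0.2%). Viability was read by CellTiter-Glo 2.0 luminescence and scaled as inhibition from 0 (vehicle wells) to 1 (blank wells). Combination Emax is the second-highest inhibition in the matrix; Bliss excess is observed combination effect minus expected EA + EB − EA·EB, EA and EB being single-agent effects.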

[2] = system: SNU-175 (Colorectal Carcinoma)
Method in brief: as §1

[3] = system: SK-MM-2 (Plasma Cell Myeloma)
Method in brief: as §1

[4] = system: NCI-H810 (Non-Small Cell Lung Carcinoma)
Method in brief: as §1

786-0 (Kidney Carcinoma) = system: 786-0 (Kidney Carcinoma)
Method in brief: as §1

[5] = system: AN3-CA (Endometrial Carcinoma)
Method in brief: as §1

KYM-1 (Rhabdomyosarcoma) = system: KYM-1 (Rhabdomyosarcoma)
Method in brief: as §1

[6] = system: BALL-1 (B-Lymphoblastic Leukemia)
Method in brief: as §1

CHL-1 (Melanoma) = system: CHL-1 (Melanoma)
Method in brief: as §1

ES-2 (Ovarian Carcinoma) = system: ES-2 (Ovarian Carcinoma)
Method in brief: as §1

[7] = system: EB-3 (Burkitt's Lymphoma)
Method in brief: as §1

[8] = system: NCI-H1563 (Lung Adenocarcinoma)
Method in brief: as §1

[9] = system: FLO-1 (Esophageal Adenocarcinoma)
Method in brief: as §1

[10] = system: NKM-1 (Acute Myeloid Leukemia)
Method in brief: as §1

[11] = system: NCI-H196 (Small Cell Lung Carcinoma)
Method in brief: as §1

[12] = system: COLO-684 (Endometrial Carcinoma)
Method in brief: as §1

[13] = system: Calu-6 (Non-Small Cell Lung Carcinoma)
Method in brief: as §1

[14] = system: OCI-AML5 (Acute Myeloid Leukemia)
Method in brief: as §1

[15] = system: LOUCY (T-Lymphoblastic Leukemia)
Method in brief: as §1

[16] = system: NCI-H1755 (Lung Adenocarcinoma)
Method in brief: as §1

| Compound | combination Emax [1] | combination Emax [2] | combination Emax [3] | combination Emax [4] | combination Emax (786-0 (Kidney Carcinoma)) | combination Emax [5] | combination Emax (KYM-1 (Rhabdomyosarcoma)) | combination Emax [6] | combination Emax (CHL-1 (Melanoma)) | combination Emax (ES-2 (Ovarian Carcinoma)) | combination Emax [7] | combination Emax [8] | combination Emax [9] | combination Emax [10] | combination Emax [11] | combination Emax [12] | combination Emax [13] | combination Emax [14] | combination Emax [15] | combination Emax [16] |
| --- | --- | --- | --- | --- | --- | --- | --- | --- | --- | --- | --- | --- | --- | --- | --- | --- | --- | --- | --- | --- |
| CS(=O)(=O)CCNCc1ccc(-c2ccc3ncnc(Nc4ccc(OCc5cccc(F)c5)c(Cl)c4)c3c2)o1 [Lapatinib] + C[C@@H](Oc1cc(-c2cnn(C3CCNCC3)c2)cnc1N)c1c(Cl)ccc(F)c1Cl [Crizotinib] (first compound max 10 µM, 7x7, partner max 10 µM) | 0.956 | 0.917 | 0.43 | 0.412 | 0.992 | 0.874 | 0.971 | 0.913 | 0.757 | 0.921 | 0.909 | 0.776 | 0.881 | 0.965 | 0.19 | 0.78 | 0.815 | 0.988 | 0.822 | 0.957 |
| NC1(C(=O)N[C@@H](CCO)c2ccc(Cl)cc2)CCN(c2ncnc3[nH]ccc23)CC1 [Capivasertib] + CCN(CCO)CCCOc1ccc2c(Nc3cc(CC(=O)Nc4cccc(F)c4)[nH]n3)ncnc2c1 [AZD2811] (first compound max 10 µM, 7x7, partner max 1 µM) | 0.405 | 0.846 | 0.239 | 0.534 | 0.553 | 0.786 | 0.559 | 0.74 | 0.567 | 0.413 | 0.458 | 0.441 | 0.415 | 0.779 | 0.358 | 0.659 | 0.413 | 0.974 | 0.918 | 0.648 |
| CN(CCO)CC[C@H](CSc1ccccc1)Nc1ccc(S(=O)(=O)NC(=O)c2ccc(N3CCC([C@@H](O)c4ccccc4-c4ccc(Cl)cc4)CC3)cc2)cc1S(=O)(=O)C(F)(F)F [AZD4320] + C[C@@H]1COCCN1C2=NC(=NC(=C2)C3(CC3)[S@](=N)(=O)C)C4=C5C=CNC5=NC=C4 [AZD6738] (first compound max 1 µM, 7x7, partner max 10 µM) | 0.881 | 0.936 | 1 | 0.86 | 0.815 | 0.637 | 0.95 | 1 | 0.893 | 0.94 | 0.578 | 0.433 | 0.742 | 1 | 0.397 | 0.728 | 0.891 | 1 | 1 | 0.831 |
| CC1(C)CCC(CN2CCN(c3ccc(C(=O)NS(=O)(=O)c4ccc(NCC5CCOCC5)c([N+](=O)[O-])c4)c(Oc4cnc5[nH]ccc5c4)c3)CC2)=C(c2ccc(Cl)cc2)C1 [Venetoclax] + C=CCn1c(=O)c2cnc(Nc3ccc(N4CCN(C)CC4)cc3)nc2n1-c1cccc(C(C)(C)O)n1 [AZD1775] (first compound max 1 µM, partner max 1 µM) | 0.341 | 0.553 | 1 | 0.781 | 0.582 | 0.446 | 0.314 | 1 | 0.891 | 0.644 | 0.674 | 0.371 | 0.84 | 0.995 | 0.574 | 0.732 | 0.787 | 1 | 1 | 0.846 |
| Cc1c2c(nn1C)CSCc1cc(n(C)n1)CSc1cc(c3ccccc3c1)OCCCc1c(C(=O)O)n(C)c3c-2c(Cl)ccc13 [AZD5991] + Cn1cnc2c(F)c(Nc3ccc(Br)cc3Cl)c(C(=O)NOCCO)cc21 [Selumetinib] (first compound max 1 µM, 7x7, partner max 3 µM) | 0.598 | 0.714 | 0.356 | 0.322 | 0.251 | 0.311 | 0.259 | 0.271 | 0.279 | 0.56 | 0.138 | 0.551 | 0.386 | 0.989 | 0.132 | 0.261 | 0.635 | 1 | 0.595 | 0.338 |
| CCN(CCO)CCCOc1ccc2c(Nc3cc(CC(=O)Nc4cccc(F)c4)[nH]n3)ncnc2c1 [AZD2811] + O=C(c1cc(Cc2n[nH]c(=O)c3ccccc23)ccc1F)N1CCN(C(=O)C2CC2)CC1 [Olaparib] (first compound max 1 µM, 7x7, partner max 10 µM) | 0.248 | 0.611 | 0.232 | 0.646 | 0.149 | 0.282 | 0.402 | 0.848 | 0.24 | 0.192 | 0.282 | 0.158 | 0.377 | 0.723 | 0.12 | 0.291 | 0.239 | 0.966 | 0.924 | 0.576 |
| CC(=O)c1c(C)c2cnc(Nc3ccc(N4CCNCC4)cn3)nc2n(C2CCCC2)c1=O [Palbociclib] + Cc1c2c(nn1C)CSCc1cc(n(C)n1)CSc1cc(c3ccccc3c1)OCCCc1c(C(=O)O)n(C)c3c-2c(Cl)ccc13 [AZD5991] (first compound max 10 µM, 7x7, partner max 1 µM) | 0.248 | 0.652 | 0.259 | 0.224 | 0.489 | 0.886 | 0.947 | 0.777 | 0.691 | 0.619 | 0.435 | 0.609 | 0.603 | 0.994 | 0.126 | 0.321 | 0.33 | 0.517 | 0.553 | 0.524 |
| Cc1cc2ncnn2cc1Nc1ncc2c(n1)n(C1CCOCC1)c(=O)n2C [AZD7648] + CCN(CCO)CCCOc1ccc2c(Nc3cc(CC(=O)Nc4cccc(F)c4)[nH]n3)ncnc2c1 [AZD2811] (first compound max 10 µM, 7x7, partner max 1 µM) | 0.202 | 0.646 | 0.313 | 0.643 | 0.215 | 0.354 | 0.182 | 0.53 | 0.308 | 0.288 | 0.554 | 0.555 | 0.406 | 0.605 | 0.185 | 0.302 | 0.317 | 0.969 | 0.948 | 0.599 |
| CN(C)CCCOc1ccc(-c2ccc3ncc4c(c3c2)n(C2CCOCC2)c(=O)n4C)cn1 [AZD0156] + O=C(c1cc(Cc2n[nH]c(=O)c3ccccc23)ccc1F)N1CCN(C(=O)C2CC2)CC1 [Olaparib] (first compound max 3 µM, partner max 3 µM) | 0.142 | 0.553 | 0.348 | 0.306 | 0.223 | 0.352 | 0.583 | 0.79 | 0.186 | 0.448 | 0.568 | 0.246 | 0.289 | 0.585 | 0.145 | 0.307 | 0.36 | 0.139 | 0.368 | 0.414 |
| COc1cc2ncnc(Nc3ccc(F)c(Cl)c3)c2cc1OCCCN1CCOCC1 [Gefitinib] + CC(C)n1c(=O)n(C)c2cnc3cc(F)c(-c4ccc(OCCCN5CCCCC5)nc4)cc3c21 [AZD1390] (first compound max 10 µM, 7x7, partner max 0.3 µM) | 0.0317 | 0.456 | 0.151 | 0.158 | 0.247 | 0.01 | 0.224 | 0.279 | 0.409 | 0.41 | 0.456 | 0.228 | 0.357 | 0.167 | 0.0162 | 0.0995 | 0.128 | 0.145 | 0.296 | 0.264 |
| CC1(C)CCC(CN2CCN(c3ccc(C(=O)NS(=O)(=O)c4ccc(NCC5CCOCC5)c([N+](=O)[O-])c4)c(Oc4cnc5[nH]ccc5c4)c3)CC2)=C(c2ccc(Cl)cc2)C1 [Venetoclax] + CN(C)CCCOc1ccc(-c2ccc3ncc4c(c3c2)n(C2CCOCC2)c(=O)n4C)cn1 [AZD0156] (first compound max 1 µM, 7x7, partner max 1 µM) | 0.205 | 0.128 | 1 | 0.121 | 0.195 | 0.227 | 0.158 | 1 | 0.27 | 0.22 | 0.343 | 0.406 | 0.339 | 0.959 | 0.113 | 0.211 | 0.199 | 0.901 | 1 | 0.654 |
| CN(C)CCCOc1ccc(-c2ccc3ncc4c(c3c2)n(C2CCOCC2)c(=O)n4C)cn1 [AZD0156] + C=CCn1c(=O)c2cnc(Nc3ccc(N4CCN(C)CC4)cc3)nc2n1-c1cccc(C(C)(C)O)n1 [AZD1775] (first compound max 1 µM, partner max 1 µM) | 0.351 | 0.405 | 0.705 | 0.889 | 0.536 | 0.351 | 0.355 | 0.977 | 0.623 | 0.616 | 0.736 | 0.367 | 0.805 | 0.853 | 0.478 | 0.688 | 0.722 | 0.95 | 1 | 0.749 |
